From US5504116A (Research Foundation of State University of New York, priority 1994, dated 1996)
Entries after “also recorded” stand apart in the source; their conditions may differ.

Key:
[1] = biological target: T1, voltage-gated calcium channel (ICa) of uterine myocytes (Rattus norvegicus, UniProt P22002); assay: whole-cell patch clamp, inward calcium current (ICa) of freshly dissociated pregnant rat uterine myocytes; assay type: cell-based
T1 construct: Individual myocytes were freshly isolated from 14 to 21-day pregnant uteri; endogenous in cells; host or cells: freshly dissociated longitudinal myometrial myocytes of 14 to 21-day pregnant Sprague-Dawley rats
Source text: Holding potential, -80 mV; depolarized by 35 ms steps from -40 mV in 10 mV increments to 30 mV. […] Traces shown represent inward currents in response to applied voltage commands, outward K^+ currents having been blocked by the use of Cs^+ -filled electrode. […] (E) Current-voltage (I--V) relations of INa in panels (A--D). Symbols correspond to those under current traces. (F) I--V relations of ICa.
Hollow symbols for I'Ca /ICa in same myocytes used for I'Na /INa values. […] P=I'Na /INa.
All experiments in this study were performed under institutional guidelines for the care and use of laboratory animals (approval #92-055). Rats (Sprague-Dawley) were mated individually in the inventors' laboratory, and the duration of gestation was timed from the morning of the first discovery of cervical plugs. […] Individual myocytes were freshly isolated from 14 to 21-day pregnant uteri. Details of the methods of isolating the myocytes in a near-physiological condition, and associated patch-clamping can be found in other publications^7,15. Briefly, strips of isolated longitudinal myometrium were incubated in collagenase, and then subjected to mild mechanical disruption, until individual myocytes in desired amounts were obtained. For the work described herein, such single freshly dissociated myocytes were studied in the whole-cell configuration of patch-clamping^9.
The bath solution in which the individual myocytes were studied contained (in mM): NaCl, 135; KCl, 5.4; MgCl2, 1; CaCl2, 3; HEPES, 10; and glucose 5. […] The pipette solution contained (in mM): CsCl, 120; EGTA, 1; Na2 ATP, 2; HEPES, 10; K-pyruvate, 5; K-oxaloacetate, 5; and K-succinate, 5. All solutions were adjusted to pH 7.3; all experiments were done at room temperature of ca. 22° C. In the whole-cell mode of recording, rupture of the cell membrane allows access of the pipette solution to the cell interior. The reason for using CsCl rather than KCl is that the Cs^+ effectively blocks outward K^+ currents, and allows the inward currents to be isolated for study. […] The basic properties of the voltage-gated sodium and calcium channels are described in detail in Yoshino et al^7.
The inward currents have been isolated by using a pipette solution containing 120 mM Cs^+.

[2] = system: K+ channels (outward potassium currents) of uterine myocytes; assay: whole-cell patch clamp, outward potassium currents of late-pregnant rat uterine myocytes; assay type: cell-based
pregnant rats = assay: effect on the duration of pregnancy in rats (intramuscular injections); assay type: in vivo, rat; conditions: for term (duration of gestation): control 22.33±0.16 days, p <0.01
fetuses and newborn rats = conditions: rat, in vivo
Source text: To avoid possible post-term complications, it was sacrificed.

[3] = dosages used in continuous epidural anesthesia for labor; cited from earlier work
[4] = biological target: T1, voltage-gated calcium channel (ICa) of uterine myocytes; conditions: 2 μM nisoldipine; cited from earlier work
preterm labor = conditions: cited from earlier work

T1 sequence (P22002 whole entry): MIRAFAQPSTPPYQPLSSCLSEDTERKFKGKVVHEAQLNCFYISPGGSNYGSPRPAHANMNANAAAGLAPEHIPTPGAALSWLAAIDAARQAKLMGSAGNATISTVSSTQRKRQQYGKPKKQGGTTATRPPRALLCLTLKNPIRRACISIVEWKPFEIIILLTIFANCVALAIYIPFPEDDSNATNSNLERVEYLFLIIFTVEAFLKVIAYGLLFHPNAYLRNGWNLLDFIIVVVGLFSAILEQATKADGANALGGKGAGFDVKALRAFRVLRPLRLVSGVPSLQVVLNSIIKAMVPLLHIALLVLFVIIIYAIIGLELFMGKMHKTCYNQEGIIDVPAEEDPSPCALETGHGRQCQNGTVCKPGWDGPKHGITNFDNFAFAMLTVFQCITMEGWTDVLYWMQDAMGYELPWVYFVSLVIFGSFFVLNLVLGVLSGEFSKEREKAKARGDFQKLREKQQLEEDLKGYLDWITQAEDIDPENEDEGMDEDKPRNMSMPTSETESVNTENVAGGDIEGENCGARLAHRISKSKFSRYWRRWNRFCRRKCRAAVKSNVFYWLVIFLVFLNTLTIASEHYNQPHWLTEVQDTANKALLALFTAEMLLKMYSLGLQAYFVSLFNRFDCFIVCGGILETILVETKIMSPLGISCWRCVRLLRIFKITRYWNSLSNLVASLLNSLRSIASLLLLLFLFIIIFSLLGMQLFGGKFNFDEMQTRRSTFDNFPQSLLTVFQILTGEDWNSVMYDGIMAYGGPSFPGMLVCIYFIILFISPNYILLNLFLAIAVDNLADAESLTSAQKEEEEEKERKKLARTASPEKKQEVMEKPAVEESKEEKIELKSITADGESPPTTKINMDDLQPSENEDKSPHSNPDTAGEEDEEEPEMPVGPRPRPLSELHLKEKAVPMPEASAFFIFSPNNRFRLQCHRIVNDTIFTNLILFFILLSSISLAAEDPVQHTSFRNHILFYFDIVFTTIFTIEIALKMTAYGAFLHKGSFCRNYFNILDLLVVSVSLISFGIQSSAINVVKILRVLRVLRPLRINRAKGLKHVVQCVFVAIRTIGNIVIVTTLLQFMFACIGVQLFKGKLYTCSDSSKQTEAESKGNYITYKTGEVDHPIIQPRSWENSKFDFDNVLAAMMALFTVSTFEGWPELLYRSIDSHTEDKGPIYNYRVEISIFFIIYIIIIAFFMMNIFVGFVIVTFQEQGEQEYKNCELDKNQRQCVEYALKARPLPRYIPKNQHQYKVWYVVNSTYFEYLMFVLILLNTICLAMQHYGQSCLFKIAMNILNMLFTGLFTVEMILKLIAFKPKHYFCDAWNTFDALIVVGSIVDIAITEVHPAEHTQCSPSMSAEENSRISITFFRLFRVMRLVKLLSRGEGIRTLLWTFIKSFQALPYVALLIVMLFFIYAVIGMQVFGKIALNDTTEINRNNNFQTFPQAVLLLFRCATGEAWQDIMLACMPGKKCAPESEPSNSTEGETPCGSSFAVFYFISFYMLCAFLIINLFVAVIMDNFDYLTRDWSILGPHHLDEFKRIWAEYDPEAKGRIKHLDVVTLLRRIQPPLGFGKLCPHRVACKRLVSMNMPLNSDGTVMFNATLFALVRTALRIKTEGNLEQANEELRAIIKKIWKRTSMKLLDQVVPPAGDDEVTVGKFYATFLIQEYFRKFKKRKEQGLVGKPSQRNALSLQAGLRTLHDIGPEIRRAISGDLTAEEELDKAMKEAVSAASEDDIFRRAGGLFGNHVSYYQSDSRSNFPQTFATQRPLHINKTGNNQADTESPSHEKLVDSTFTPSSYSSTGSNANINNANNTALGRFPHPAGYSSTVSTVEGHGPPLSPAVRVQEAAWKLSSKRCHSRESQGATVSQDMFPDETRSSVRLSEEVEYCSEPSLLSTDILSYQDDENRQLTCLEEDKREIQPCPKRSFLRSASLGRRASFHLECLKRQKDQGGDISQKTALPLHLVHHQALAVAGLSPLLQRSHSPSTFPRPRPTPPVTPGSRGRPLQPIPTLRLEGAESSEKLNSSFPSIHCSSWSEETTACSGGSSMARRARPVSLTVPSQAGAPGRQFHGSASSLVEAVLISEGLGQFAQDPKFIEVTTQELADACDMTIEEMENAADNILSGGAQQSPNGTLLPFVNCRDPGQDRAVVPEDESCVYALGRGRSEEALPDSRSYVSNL
T1 sequence (P54290 25-944 partner limits assumed): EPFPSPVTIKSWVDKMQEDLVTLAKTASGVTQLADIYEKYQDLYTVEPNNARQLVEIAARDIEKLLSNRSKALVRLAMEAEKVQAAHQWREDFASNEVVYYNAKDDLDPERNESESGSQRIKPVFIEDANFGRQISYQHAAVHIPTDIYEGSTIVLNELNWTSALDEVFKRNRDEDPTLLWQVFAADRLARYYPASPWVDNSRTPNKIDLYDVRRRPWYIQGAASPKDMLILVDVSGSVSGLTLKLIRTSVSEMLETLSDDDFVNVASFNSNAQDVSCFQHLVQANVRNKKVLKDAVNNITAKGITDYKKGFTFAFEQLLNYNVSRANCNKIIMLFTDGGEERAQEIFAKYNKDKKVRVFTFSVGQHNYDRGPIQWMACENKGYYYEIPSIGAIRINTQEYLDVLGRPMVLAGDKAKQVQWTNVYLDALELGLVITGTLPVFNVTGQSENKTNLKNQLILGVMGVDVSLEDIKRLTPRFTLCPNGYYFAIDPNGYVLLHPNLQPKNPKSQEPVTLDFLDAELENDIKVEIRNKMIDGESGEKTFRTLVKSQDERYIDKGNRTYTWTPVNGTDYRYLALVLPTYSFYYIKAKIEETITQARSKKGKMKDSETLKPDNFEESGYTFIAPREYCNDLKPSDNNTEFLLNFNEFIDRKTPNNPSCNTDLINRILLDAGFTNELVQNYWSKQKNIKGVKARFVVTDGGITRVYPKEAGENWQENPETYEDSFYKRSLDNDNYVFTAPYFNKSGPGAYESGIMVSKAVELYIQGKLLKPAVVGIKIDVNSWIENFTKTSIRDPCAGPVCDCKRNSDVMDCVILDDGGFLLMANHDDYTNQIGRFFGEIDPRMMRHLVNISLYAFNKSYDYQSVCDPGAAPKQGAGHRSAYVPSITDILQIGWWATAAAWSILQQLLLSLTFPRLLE
T1 sequence (P54290 945-1091 partner limits assumed): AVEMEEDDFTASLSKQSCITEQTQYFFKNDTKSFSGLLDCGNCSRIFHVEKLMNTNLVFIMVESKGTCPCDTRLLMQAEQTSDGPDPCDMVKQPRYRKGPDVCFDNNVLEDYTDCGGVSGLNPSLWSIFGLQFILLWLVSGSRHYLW

CCN(CC)CC(=O)Nc1c(C)cccc1C [lidocaine]
ICa, effect in words ([1]; 0.02 mM lidocaine, 5 min (FIG. 3A)): no detectable difference
ICa, effect in words ([1]; 0.1 mM and 0.2 mM lidocaine, 5 min (FIG. 3B, C)): slight reductions of the tail currents
Ca2+ currents, effect in words ([1]; 0.5 mM lidocaine (FIG. 2D)): reduced slightly
ICa and tail-current, effect in words ([1]; 1 mM lidocaine, 3 min (FIG. 2B)): only slightly reduced
remaining activity at 1000 µM ([1]; 0.05 h, read-out: ICa relative to control (pre-lidocaine)): 93%
remaining activity at 500 µM ([1]; 0.05 h, read-out: tail ICa remaining relative to recovery state (C)): 78%
effects on myometrial K+ or Ca2+ channels at concentrations blocking sodium channels ([1]; Ca2+ channels, uterine myocytes): no effects
effect on ICa, in words ([1]; concentrations of lidocaine up to 0.5 mM (FIG. 4)): very little effect
effect on coexisting voltage-gated calcium channels, summary in words ([1]; summary of the examples): very little effect
effects on myometrial K+ or Ca2+ channels at concentrations blocking sodium channels ([2]; K+ channels, uterine myocytes): no effects
effect on coexisting potassium channels, summary in words ([2]; summary of the examples): very little effect
effect on outward K+ current ([2]; up to 0.5 mM lidocaine, 5 min, late-pregnant uteri (FIG. 1)): insignificant effects; also recorded: rather minor
day of delivery (pregnant rats; 2 mg/kg i.m. twice daily, two rats, both): delivered on the 23rd day
duration of pregnancy, single rat (pregnant rats; 6 mg/kg i.m. twice daily, one rat, sacrificed): continued into the 26th day
term (duration of gestation) (pregnant rats; 2, 4 or 6 mg/kg i.m. twice daily from day-20, 8 rats): 23.63 ± 0.39 days
term (duration of gestation) (pregnant rats; 4 or 6 mg/kg i.m. twice daily from day-20, 6 rats): 23.83 ± 0.40 days
difference in duration of gestation versus control (pregnant rats; i.m. lidocaine, 22-day gestation): 1.5 days
lengthening of the term / prolongation of gestation (pregnant rats; i.m. lidocaine, pregnant rats): 7%
motor activities of fetuses at birth or newborn several hours after birth (fetuses and newborn rats): no discernable differences
condition of fetuses at autopsy (fetuses and newborn rats; 6 mg/kg): healthy and indistinguishable from those of control newborns, except for their larger sizes
serious side-effects on either the mother or the fetus [3]: absence of serious side-effects

COC(=O)C1=C(C)NC(C)=C(C(=O)OCC(C)C)C1c1ccccc1[N+](=O)[O-] (stereo not shown) [nisoldipine]
block of Ca2+ current [4]: blocked

CC(NCCc1ccc(O)cc1)C(O)c1ccc(O)cc1 (stereo not shown) [ritodrine]
duration of effectiveness in preterm labor (preterm labor): effective for only a few days
effect on pregnancy outcome (preterm labor): does not affect the pregnancy outcome
side-effects (preterm labor): can produce cardiovascular side-effects in some recipients
